Results from patent US8815915B2, “Benzofuran-2-sulfonamides pyridine derivatives as chemokine receptor modulators” (Allergan, Inc., priority 2012, dated 2014).

Molecular target: T1, CCR2 receptor (Homo sapiens, UniProt P41597)
T1 construct: expressed in transfected cells
Assay: compound-induced calcium activity on FLIPR Tetra in HEK-Gqi5 cells stably expressing CCR2
Type: cell-based
Settings: CCR2 receptor, HEK-Gqi5 cells stably expressing CCR2, calcium FLIPR Tetra; for IC50: read-out: IC50
Procedure: HEK-Gqi5 cells stably expressing CCR2 were cultured in (DMEM high glucose, 10% FBS, 1% PSA, 400 μg/ml geneticin and 50 μg/ml hygromycin. Appropriate positive control chemokines (MCP-1, MIP1A or RANTES) was used as the positive control agonist for screening compound-induced calcium activity assayed on the FLIPR^Tetra. The drug plates were prepared in 384-well microplates using the EP3 and the MultiPROBE robotic liquid handling systems. Compounds were synthesized and tested for CCR2 activity.

T1 sequence (P41597 whole entry): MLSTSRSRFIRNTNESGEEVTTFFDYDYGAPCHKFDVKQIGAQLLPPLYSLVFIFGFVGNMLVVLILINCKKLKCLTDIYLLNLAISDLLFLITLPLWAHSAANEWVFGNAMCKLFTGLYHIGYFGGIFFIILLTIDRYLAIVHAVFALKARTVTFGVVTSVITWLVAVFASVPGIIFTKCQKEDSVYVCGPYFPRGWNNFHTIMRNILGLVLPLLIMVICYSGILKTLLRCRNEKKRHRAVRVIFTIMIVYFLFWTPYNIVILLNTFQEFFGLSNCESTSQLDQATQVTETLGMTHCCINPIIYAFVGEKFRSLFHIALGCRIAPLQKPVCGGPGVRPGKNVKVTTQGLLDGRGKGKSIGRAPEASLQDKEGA

For `COC(=O)c1ccccc1C[S+]([O-])c1ncc(Cl)cc1NS(=O)(=O)c1cc2ccccc2o1` (stereo not shown) [Compound 37, methyl 2-[({3-[(1-benzofuran-2-ylsulfonyl)amino]-5-chloropyridin-2-yl}sulfinyl)methyl]benzoate], the “% ANTAGONISM” value was 95% and the IC50 was 191 nM.
`COC(=O)c1ccccc1CS(=O)(=O)c1ncc(Cl)cc1NS(=O)(=O)c1cc2ccccc2o1` [Compound 38, methyl 2-[({3-[(1-benzofuran-2-ylsulfonyl)amino]-5-chloropyridin-2-yl}sulfonyl)methyl]benzoate] was tested, and the “% ANTAGONISM” value was 97% and the IC50 was 180 nM.
In the case of `O=C(O)c1ccccc1CS(=O)(=O)c1ncc(Cl)cc1NS(=O)(=O)c1cc2ccccc2o1` [Compound 39, 2-[({3-[(1-benzofuran-2-ylsulfonyl)amino]-5-chloropyridin-2-yl}sulfonyl)methyl]benzoic acid], the “% ANTAGONISM” value is reported as 32% and the IC50 is reported as 2690 nM.
For `O=S(=O)(Nc1cc(F)cnc1Sc1ccccc1)c1cc2ccccc2o1` [Compound 40, N-[5-fluoro-2-(phenylsulfanyl)pyridin-3-yl]-1-benzofuran-2-sulfonamide], the “% ANTAGONISM” value was 65% and the IC50 was 469 nM.
`O=S(=O)(Nc1cc(F)cnc1[S+]([O-])c1ccccc1)c1cc2ccccc2o1` (stereo not shown) [Compound 41, N-[5-fluoro-2-(phenylsulfinyl)pyridin-3-yl]-1-benzofuran-2-sulfonamide] was tested, and the “% ANTAGONISM” value was 97% and the IC50 was 68 nM.
In the case of `O=C(O)c1ccccc1C[S+]([O-])c1ncc(Cl)cc1NS(=O)(=O)c1cc2ccccc2o1` (stereo not shown) [Compound 43, 2-[({3-[(1-benzofuran-2-ylsulfonyl)amino]-5-chloropyridin-2-yl}sulfinyl)methyl]benzoic acid], the “% ANTAGONISM” value is reported as 90%.
For `Cc1cnc([S+]([O-])c2ccccc2)c(NS(=O)(=O)c2cc3ccccc3o2)c1` (stereo not shown) [Compound 45, N-[5-methyl-2-(phenylsulfinyl)pyridin-3-yl]-1-benzofuran-2-sulfonamide], the “% ANTAGONISM” value was 105% and the IC50 was 455 nM.
With `Cc1cnc(S(=O)(=O)c2ccccc2)c(NS(=O)(=O)c2cc3ccccc3o2)c1` [Compound 46, N-[5-methyl-2-(phenylsulfonyl)pyridin-3-yl]-1-benzofuran-2-sulfonamide] the “% ANTAGONISM” value was 57% and the IC50 was 1440 nM.
`O=C(O)c1ccccc1Sc1ncc(Cl)cc1NS(=O)(=O)c1cc2ccccc2o1` [Compound 47, 2-({3-[(1-benzofuran-2-ylsulfonyl)amino]-5-chloropyridin-2-yl}sulfanyl)benzoic acid] was tested, and the “% ANTAGONISM” value was 102% and the IC50 was 1230 nM.
In the case of `O=C(O)c1cccc(Sc2ncc(Cl)cc2NS(=O)(=O)c2cc3ccccc3o2)c1` [Compound 48, 3-({3-[(1-benzofuran-2-ylsulfonyl)amino]-5-chloropyridin-2-yl}sulfanyl)benzoic acid], the “% ANTAGONISM” value is reported as 96% and the IC50 is reported as 786 nM.
In the case of `O=C(O)c1ccccc1[S+]([O-])c1ncc(Cl)cc1NS(=O)(=O)c1cc2ccccc2o1` (stereo not shown) [Compound 50, 2-({3-[(1-benzofuran-2-ylsulfonyl)amino]-5-chloropyridin-2-yl}sulfinyl)benzoic acid], the “% ANTAGONISM” value is reported as 5% and the IC50 is reported as 1950 nM.
`COC(=O)c1ccccc1CSc1ncccc1NS(=O)(=O)c1cc2ccccc2o1` [Compound 56, methyl 2-[({3-[(1-benzofuran-2-ylsulfonyl)amino]pyridin-2-yl}sulfanyl)methyl]benzoate] was tested, and the “% ANTAGONISM” value was 92% and the IC50 was 1750 nM.
In the case of `O=C(O)c1ccccc1CSc1ncccc1NS(=O)(=O)c1cc2ccccc2o1` [Compound 57, 2-[({3-[(1-benzofuran-2-ylsulfonyl)amino]pyridin-2-yl}sulfanyl)methyl]benzoic acid], the “% ANTAGONISM” value is reported as 98% and the IC50 is reported as 493 nM.
With `COC(=O)c1ccccc1C[S+]([O-])c1ncccc1NS(=O)(=O)c1cc2ccccc2o1` (stereo not shown) [Compound 58, methyl 2-[({3-[(1-benzofuran-2-ylsulfonyl)amino]pyridin-2-yl}sulfinyl)methyl]benzoate] the “% ANTAGONISM” value was 102% and the IC50 was 198 nM.
For `O=C(O)c1ccccc1C[S+]([O-])c1ncccc1NS(=O)(=O)c1cc2ccccc2o1` (stereo not shown) [Compound 59, 2-[({3-[(1-benzofuran-2-ylsulfonyl)amino]pyridin-2-yl}sulfinyl)methyl]benzoic acid], the “% ANTAGONISM” value was 58%.
`COC(=O)c1ccccc1CS(=O)(=O)c1ncccc1NS(=O)(=O)c1cc2ccccc2o1` [Compound 60, methyl 2-[({3-[(1-benzofuran-2-ylsulfonyl)amino]pyridin-2-yl}sulfonyl)methyl]benzoate] was tested, and the “% ANTAGONISM” value was 101% and the IC50 was 86 nM.
In the case of `O=C(O)c1ccccc1CS(=O)(=O)c1ncccc1NS(=O)(=O)c1cc2ccccc2o1` [Compound 61, 2-[({3-[(1-benzofuran-2-ylsulfonyl)amino]pyridin-2-yl}sulfonyl)methyl]benzoic acid], the “% ANTAGONISM” value is reported as 57%.
